Tests used:
[1] = system: HT22 cells; experiment: Total GSH Measurements; format: cell-based, mouse; conditions: 5 μM
Description: Total GSH Measurements. HT22 cells were seeded onto 35 mm dishes at a density of 70,000 cells/dish in DMEM supplemented with 10% FBS and 1% antibiotics. After the desired treatments, the cells were scraped into ice-cold PBS and the cell pellets collected by centrifugation (500 g). The pellets were resuspended in PBS and 10% sulfosalicylic acid was added at a final concentration of 3.3% to the cells. Proteins were pelleted by centrifugation and the supernatant neutralized. Total GSH was determined by the recycling assay based on the reduction of 5,5-dithiobis(2-nitrobenzoic acid) with glutathione reductase and NADPH and normalized to protein recovered from the acid-precipitated pellet by treatment with 0.2 N NaOH at 37° C. overnight and measured by the BCA protein assay (Pierce, Rockford, IL, USA). Samples were analyzed in four dishes per independent experiment (n=4).

[2] = system: HT22 cells; experiment: Immunoblotting (Western blots) of protein levels; format: cell-based, mouse
Description: Cell Protein Extraction. HT22 cells were seeded onto 10 cm dishes at a density of 400,000 cells/dish in DMEM supplemented with 10% FBS and 1% antibiotics, and then exposed to the desired treatments. For total protein extracts, HT22 cells were washed with ice-cold phosphate buffered saline (PBS) and lysed with cell extraction buffer containing 10 mM Tris, pH 7.4, 100 mM NaCl, 1 mM EDTA, 1 mM EGTA, 1 mM NaF, 20 mM Na4P2O7, 2 mM Na3VO4, 1% Triton X-100, 10% glycerol, 0.1% sodium dodecyl sulfate (SDS), 0.5% sodium deoxycholate, a protease inhibitor cocktail, and a phosphatase inhibitor cocktail followed by centrifugation (14000 g) for 30 min at 4° C. For nuclear extracts, HT22 cells were washed with ice-cold PBS, incubated with a nuclear fractionation buffer containing 10 mM HEPES, pH 7.9, 10 mM KCl, 0.1 mM EDTA, 0.1 mM EGTA, 1 mM DTT, 1 mM Na3VO4, a protease inhibitor cocktail, and a phosphatase inhibitor cocktail on ice for 15 min, then Nonidet P-40 at a final concentration of 0.6% was added to the buffer. Cells were vortexed, and the nuclei pelleted by centrifugation (1000 g) for 10 min at 4° C. Nuclear proteins were extracted by sonication of the nuclear pellet in nuclear fractionation buffer followed by centrifugation (14000 g) for 30 min at 4° C. The resulting supernatants of total/nuclear protein extracts were stored at −80° C. until analysis. Concentrations of the harvested proteins were determined by the BCA protein assay.
Immunoblotting. Western blots were carried out as follows. Laemmli sample buffer with 2% β-mercaptoethanol was added to the samples and then boiled for 5 min prior to SDS-PAGE. Equal amounts of cellular protein for each sample (10 μg per lane) were resolved by 4-12% gradient Criterion XT Precast Bis-Tris Gels (Bio-Rad, Hercules, CA) and transferred onto PVDF membranes with a Trans-Blot Turbo System (Bio-Rad, Hercules, CA). The membranes were blocked with 5% skim milk in TBST (20 mM Tris buffer, pH 7.5, 0.5 M NaCl, 0.1% Tween 20) for 1 hr at room temperature and incubated overnight at 4° C. with the diluted primary antibody in 5% BSA in TBST. After washes with TBST, the membranes were incubated with horseradish peroxidase-conjugated goat anti-rabbit or anti-mouse secondary antibodies (Bio-Rad, Hercules, CA) diluted 1:5000 in 5% skim milk in TBST. For all primary antibodies, the same membrane was re-probed for β-actin or an antiserum reacting with the total protein. After additional washing, protein bands were detected using the SuperSignal West Pico PLUS Chemiluminescent Substrate, and visualized with a ChemiDoc MP Imaging System (Bio-Rad, Hercules, CA). Band density was quantified densitometrically with Image Lab software (Bio-Rad, Hercules, CA). Relative protein expression was normalized to ß-actin band density. Each Western blot was performed three to six times with independent protein samples (n=3−6).

[3] = system: HT22 cells; experiment: Calcium Measurements (Fluo-4 AM, Rhod-2 AM); format: cell-based, mouse
Description: Calcium Measurements. HT22 cells were seeded onto 96-well black walled plates at a density of 5,000 cells/well in DMEM supplemented with 10% FBS and 1% antibiotics. After the desired treatments, Ca^2+ levels were detected with Fluo-4 AM (Ex/Em=494/516 nm) and Rhod-2 AM (Ex/Em=552/581 nm) calcium indicator dyes specific to cytosol and mitochondria, respectively. Fluorescence was measured on a SpectraMax M5 microplate reader. Experiments were performed according to the manufacturer's instructions. Data were normalized for total protein/well. Each condition was analyzed in sixteen wells per independent experiment (n=16). Results were presented as the percentage of the controls with vehicle alone. Results were verified by live-cell imaging under a fluorescence microscope.

[4] = system: SH-SY5Y neuroblastoma cells; experiment: Mitochondrial Membrane Potential Assay (JC-10) in SH-SY5Y cells; format: cell-based; conditions: 4 hr
Description: SH-SY5Y neuroblastoma cells were cultured in 1:1 (v/v) DMEM/F12 medium (Invitrogen, Cat #11330032, Carlsbad, CA) supplemented with 1% non-essential amino acids (Invitrogen, Cat #11140050), 10% FBS, and 1% antibiotics including penicillin and streptomycin. Cell cultures were incubated at 37° C. in a fully humidified atmosphere containing 10% CO2.
Mitochondrial Membrane Potential Assay. Cells seeded at 5,000 cells/well onto 96-well black walled plates were treated with test compounds at the desired concentrations under the culture condition described above. The mitochondrial uncoupler FCCP at 2 μM was used as a reference control. After the desired treatments for 4 hr, the cells were subjected to a JC-10 mitochondrial membrane potential assay according to the manufacturer's instruction. Fluorescence intensities (Ex/Em=490/525 nm, and Ex/Em=540/590 nm) of each well were monitored on a SpectraMax M5 microplate reader. The ratio of fluorescence intensity (590/525 nm) was used to determine the mitochondrial membrane potential (ΔΨm). Decreasing ratios indicate mitochondrial membrane depolarization. Samples were analyzed in eight to sixteen wells per independent experiment (n=8-16). Results were verified by live-cell imaging under a fluorescence microscope.

Structure (SMILES): CCCCCc1cc(O)c2c(c1)OC(C)(C)c1ccc(C)cc1-2 [CBN, 6,6,9-Trimethyl-3-pentyl-benzo[c]chromen-1-ol]
- total GSH levels [1]: no impact
- DRP1 and MFF levels, co-treatment with RSL3 [2]: restored DRP1 levels but not MFF levels
- MFF and DRP1 expression, compound alone [2]: significantly enhanced the expression of MFF but not DRP1
- OPA1 and MFN2 expression, co-treatment with RSL3 [2]: enhanced the expression of OPA1 but not MFN2
- PGC-1α and TFAM levels, compound alone [2]: no apparent effects
- RSL3-induced decrease of SIRT1, pAMPK/AMPK, PGC-1α, NRF1, TFAM [2]: prevented
- protein expression of OXPHOS complexes I, II, III and V, compound alone [2]: did not exert obvious effects
- protein expression of SIRT1, pAMPK(Thr172)/AMPK and NRF1, compound alone [2]: upregulated
- RSL3-induced upregulation of OXPHOS complexes ([2]; 50 nM RSL3): inhibited
- effect on ATF4 with RSL3 ([2]; 5 μM CBN, 50 nM RSL3): not significant
- protein levels of Nrf2, HO-1, SOD2 and GPX4 with RSL3 ([2]; 5 μM CBN, 50 nM RSL3): at levels similar to the control cells
- protein levels of Nrf2, HO-1, SOD2 and GPX4, compound alone ([2]; 5 μM, 16 h): upregulation
- MCU expression, compound alone ([2]; 5 μM, 16 hr): reduced basal MCU expression
- RSL3-induced HSP60 upregulation ([2]; 16 h): suppressed
- VDAC level, compound alone ([2]; 16 h): upregulated
- OPA1 and MFN2 levels, compound alone ([2]; 16 hr): upregulated
- RSL3-induced MCU upregulation ([2]; p<0.0001): prevented this increase
- RSL3-induced VDAC decrease ([2]; p<0.0001): prevented
- protein level of OXPHOS complex IV, compound alone ([2]; p<0.0001): reduced
- Ca^2+ in cytosol and mitochondria, compound alone ([3]; 5 μM, 16 hr): did not affect Ca^2+ influx
- Ca^2+ levels in cytosol and mitochondria with RSL3 ([3]; pretreatment 1 hr, co-incubation with RSL3): maintained basal Ca^2+ levels
- decrease of ΔΨm [4]: also observed

— US20240261302A1, “METHODS OF TREATING NEURODEGENERATIVE DISEASES OR CONDITIONS” (FloraScience Inc., priority 2023, published 2024)
